The source of these data is ChEMBL document CHEMBL4673209, “Discovery of a novel potent GPR40 full agonist” (Bioorg Med Chem Lett, 2018).

Each structure is given as a SMILES string. The source made the active and inactive calls. The calls are words filed in the database; no cut-off is given here. A value given as a limit tells only on which side of the number the result lay.

A short description of series [1]: Hepatic clearance in human. The format is ADME.
For series [2], the target named is Free fatty acid receptor 1 (Rattus norvegicus) (UniProt Q8K3T4). Nature of the series: Agonist activity at rat GPR40 receptor expressed in CHOK1 cells assessed as induction of IP1 accumulation at 10 uM relative to TAK875. The format is functional, cell-based. The conditions noted are these: CHO-K1, filed as agonist.
In series [3] the target is T1, Free fatty acid receptor 1 (Homo sapiens, UniProt O14842). Kind of series: Agonist activity at GPR40 in human islets assessed as induction of glucose-stimulated insulin secretion at 0.3 to 10 uM. The format is tissue-based. The conditions noted are these: Pancreatic islet, filed as agonist, dose 0.3-10 µM.
Series [4] is described as follows: Protein binding in rat plasma. The format is ADME, cell-free. The conditions noted are these: read-out: PPB (converted).
In series [5] the test system is Rattus norvegicus. Nature of the series: Anti-glycemic activity in fasted Sprague-Dawley ZDF rat assessed as reduction in post-prandial hyperglycemia by measuring AUC(0 to 2 hrs) for blood glucose at 3 mg/kg administered daily for 8 days and measured on day 8 by OGTT. It is filed as functional. The conditions noted are these: time 8 day.
The target in series [6] is Cytochrome P450 3A4 (Homo sapiens, UniProt P08684). Kind of series: Inhibition of CYP3A4 (unknown origin) using testosterone as substrate. It is filed as ADME.
Series [7] concerns the target Cytochrome P450 2D6 (Homo sapiens, UniProt P10635). Kind of series: Inhibition of CYP2D6 (unknown origin). The format is ADME.
Series [8] in a line: Clearance in cynomolgus monkey. The conditions noted are these: in vivo. The format is ADME, Macaca fascicularis.
Series [9] deals with T2, Free fatty acid receptor 2 (Homo sapiens) (UniProt O15552).
T2 sequence (whole entry): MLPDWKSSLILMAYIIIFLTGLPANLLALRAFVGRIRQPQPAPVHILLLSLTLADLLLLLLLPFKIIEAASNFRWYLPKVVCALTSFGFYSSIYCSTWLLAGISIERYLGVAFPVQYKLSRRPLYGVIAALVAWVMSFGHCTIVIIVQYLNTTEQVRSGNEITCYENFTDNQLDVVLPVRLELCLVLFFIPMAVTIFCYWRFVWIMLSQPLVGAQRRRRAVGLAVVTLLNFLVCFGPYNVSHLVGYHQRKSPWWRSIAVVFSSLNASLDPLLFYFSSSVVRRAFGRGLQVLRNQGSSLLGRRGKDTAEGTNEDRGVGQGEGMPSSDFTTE
Nature of the series: Agonist activity at GPR43 (unknown origin).

Series [10] in a line: Apparent permeability from apical to basolateral side in dog MDCK-MDR1 cells. The format is ADME, cell-based, Canis lupus familiaris.
Series [11] deals with T3, Free fatty acid receptor 1 (Rattus norvegicus, UniProt Q8K3T4). Kind of series: Agonist activity at GPR40 receptor in rat INS1(832/13) cells assessed as induction of IP1 accumulation. It is filed as functional, cell-based, INS-1 832/13.
Series [12] is described as follows: Apparent permeability across basolateral to apical side in human Caco2 cells. It is filed as ADME, cell-based. As to conditions: Caco-2.
In series [13] the target is T1, Free fatty acid receptor 1. Kind of series: Agonist activity at human GPR40 transfected in HEK293 cells assessed as increase in intracellular calcium level incubated for 1 hr by Fluo-8 dye based fluorescence analysis. It is filed as functional, cell-based. The conditions noted are these: hek293.
In series [14] the test system is Rattus norvegicus. Nature of the series: Anti-glycemic activity in fasted Sprague-Dawley ZDF rat assessed as reduction in post-prandial hyperglycemia administered 30 mins prior to glucose challenge and measured for 120 mins by OGTT. It is filed as functional. As to conditions: 2.5 h, time 150 min, read-out: MED.
Series [15] deals with T4, Peroxisome proliferator-activated receptor alpha (Homo sapiens) (UniProt Q07869).
T4 sequence (whole entry): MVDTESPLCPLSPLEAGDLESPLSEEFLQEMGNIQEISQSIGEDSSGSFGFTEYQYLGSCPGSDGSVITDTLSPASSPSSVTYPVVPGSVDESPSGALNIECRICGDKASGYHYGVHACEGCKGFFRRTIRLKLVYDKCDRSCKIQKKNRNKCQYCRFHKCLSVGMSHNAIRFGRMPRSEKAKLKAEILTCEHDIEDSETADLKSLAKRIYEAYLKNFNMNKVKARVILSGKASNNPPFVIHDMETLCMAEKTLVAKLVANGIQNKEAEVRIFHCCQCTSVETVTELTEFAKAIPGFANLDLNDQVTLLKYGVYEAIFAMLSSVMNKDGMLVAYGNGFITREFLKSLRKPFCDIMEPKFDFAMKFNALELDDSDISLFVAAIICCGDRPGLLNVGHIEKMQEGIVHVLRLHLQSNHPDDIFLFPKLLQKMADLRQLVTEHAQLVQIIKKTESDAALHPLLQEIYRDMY
Nature of the series: Agonist activity at PPARalpha (unknown origin).

The nature of series [16]: Cmax in rat. The conditions noted are these: in vivo. It is filed as ADME.
Series [17] addresses T3, Free fatty acid receptor 1. Nature of the series: Agonist activity at rat GPR40 receptor expressed in CHOK1 cells assessed as induction of IP1 accumulation. The format is functional, cell-based, CHO-K1.

T3 sequence (Q8K3T4 whole entry): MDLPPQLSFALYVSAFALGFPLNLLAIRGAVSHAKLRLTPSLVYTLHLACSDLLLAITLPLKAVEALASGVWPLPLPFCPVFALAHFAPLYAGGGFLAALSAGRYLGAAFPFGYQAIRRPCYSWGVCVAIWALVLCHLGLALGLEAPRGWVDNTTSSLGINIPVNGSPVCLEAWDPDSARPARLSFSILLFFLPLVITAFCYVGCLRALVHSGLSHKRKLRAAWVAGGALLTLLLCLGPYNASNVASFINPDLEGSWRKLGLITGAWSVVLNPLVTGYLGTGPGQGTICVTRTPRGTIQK
T1 sequence (O14842 whole entry): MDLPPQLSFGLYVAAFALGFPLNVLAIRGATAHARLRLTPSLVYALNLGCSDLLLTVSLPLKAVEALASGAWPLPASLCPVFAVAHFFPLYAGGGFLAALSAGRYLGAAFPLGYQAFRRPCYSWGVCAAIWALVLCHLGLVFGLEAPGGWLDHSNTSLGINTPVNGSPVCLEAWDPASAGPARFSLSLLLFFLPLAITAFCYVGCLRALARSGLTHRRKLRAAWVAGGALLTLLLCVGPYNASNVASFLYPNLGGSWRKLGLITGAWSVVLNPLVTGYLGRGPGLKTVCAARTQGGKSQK
Chain of Cytochrome P450 3A4 (P08684 whole entry): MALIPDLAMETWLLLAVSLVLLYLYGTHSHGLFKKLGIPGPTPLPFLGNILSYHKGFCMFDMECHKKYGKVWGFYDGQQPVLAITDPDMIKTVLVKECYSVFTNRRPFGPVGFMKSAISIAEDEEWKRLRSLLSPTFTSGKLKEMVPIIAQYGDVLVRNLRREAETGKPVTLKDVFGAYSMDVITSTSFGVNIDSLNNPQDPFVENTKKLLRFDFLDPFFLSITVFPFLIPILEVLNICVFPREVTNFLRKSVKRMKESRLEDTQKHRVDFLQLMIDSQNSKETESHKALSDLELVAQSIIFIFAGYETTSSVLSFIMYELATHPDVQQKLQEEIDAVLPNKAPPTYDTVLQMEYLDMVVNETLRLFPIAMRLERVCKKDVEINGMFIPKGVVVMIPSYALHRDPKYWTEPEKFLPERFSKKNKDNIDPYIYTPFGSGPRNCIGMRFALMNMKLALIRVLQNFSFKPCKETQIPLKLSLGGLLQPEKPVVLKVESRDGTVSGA
Chain of Free fatty acid receptor 1 (Rattus norvegicus) (Q8K3T4 whole entry): as the sequence (Q8K3T4 whole entry) above
Chain of Cytochrome P450 2D6 (P10635 whole entry): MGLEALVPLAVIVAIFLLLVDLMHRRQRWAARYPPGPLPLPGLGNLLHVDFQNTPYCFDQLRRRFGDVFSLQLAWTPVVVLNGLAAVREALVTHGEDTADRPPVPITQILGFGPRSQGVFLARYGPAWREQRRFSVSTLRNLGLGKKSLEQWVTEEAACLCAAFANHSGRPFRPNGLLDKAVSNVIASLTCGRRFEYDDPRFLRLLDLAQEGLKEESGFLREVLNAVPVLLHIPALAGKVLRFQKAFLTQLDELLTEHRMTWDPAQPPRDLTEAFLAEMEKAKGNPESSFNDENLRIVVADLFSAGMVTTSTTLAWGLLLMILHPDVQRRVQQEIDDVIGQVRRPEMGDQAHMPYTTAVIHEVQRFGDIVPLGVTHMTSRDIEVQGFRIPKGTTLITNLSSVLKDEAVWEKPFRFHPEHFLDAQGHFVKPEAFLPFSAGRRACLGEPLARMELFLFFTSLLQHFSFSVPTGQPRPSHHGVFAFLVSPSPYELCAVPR

`COc1cc(-c2ncc(COc3cccc([C@@H](CC(=O)O)C4CC4)c3)nc2CC(C)C)c(F)cn1`: the CLH in series [1] was determined as 8.9 mL/min/kg. Also, the figures for the Activity in series [2] and in series [5] were 167% and 16769 ng/mL.hr, respectively. For the same compound, the result in [3] was Active. Moreover, the fraction unbound in [4] is 0.0009. For the same compound, the IC50 in [6] and in series [7] was > 10000 nM each time. Further, in [8], the clearance came to 2.19 mL/min/kg. Further, the result in [9] and in series [15] was inactive. Moreover, the Papp A→B in [10] is 50 ×10⁻⁶ cm/s. Further, the results for the 50% effective concentration (EC50) in series [11], in series [13] and in [17] were 862 nM, 2 nM and 547 nM, respectively. Moreover, the Papp B→A in series [12] was 40 ×10⁻⁶ cm/s. Moreover, the minimal effective dose in [14] was 3 mg/kg. In series [16], this compound displayed a Cmax of 9720 ng/mL.
